Earlier results in patent US20110052685A1, “GASTRIC RETENTIVE PHARMACEUTICAL COMPOSITIONS FOR IMMEDIATE AND EXTENDED RELEASE OF ACETAMINOPHEN” (DEPOMED, INC., priority 2009, published 2011).

Half-life (elimination, from Rawlins et al., 1977): (2.7) hr
1st Order Elimination Constant K (from Rawlins et al., 1977): 0.257 h⁻¹
Oral Bioavaiability F (from Rawlins et al., 1977): 0.89
Volume of Distribution V (from Rawlins et al., 1977): 78800 mL
Absorption Half-life (oral immediate release, fed mode): (0.76) hr
1st Order Absorption Constant (under fed mode - with food) ka (oral immediate release, from Divoll et al., 1982): 0.912 h⁻¹
SMILES: CC(=O)Nc1ccc(O)cc1 [acetaminophen, N-(4-hydroxyphenyl)acetamine]
